Laboratory results: ChEMBL document CHEMBL4477251, “Vialinin A and thelephantin G, potent inhibitors of tumor necrosis factor-α production, inhibit sentrin/SUMO-specific protease 1 enzymatic activity” (Bioorg Med Chem Lett, 2016)
Calls of active or inactive are those of the source. The rule behind the calls is not given here.

Experiments:
[1] = target: T1, Sentrin-specific protease 1 (Homo sapiens, UniProt Q9P0U3); test: Inhibition of full-length recombinant human 6His-tagged SENP1 expressed in Escherichia coli BL21 (DE3) preincubated for 15 mins followed by addition of SUMO1-AMC as substrate measured after 1 hr by fluorescence analysis
T1 sequence (Q9P0U3 whole entry): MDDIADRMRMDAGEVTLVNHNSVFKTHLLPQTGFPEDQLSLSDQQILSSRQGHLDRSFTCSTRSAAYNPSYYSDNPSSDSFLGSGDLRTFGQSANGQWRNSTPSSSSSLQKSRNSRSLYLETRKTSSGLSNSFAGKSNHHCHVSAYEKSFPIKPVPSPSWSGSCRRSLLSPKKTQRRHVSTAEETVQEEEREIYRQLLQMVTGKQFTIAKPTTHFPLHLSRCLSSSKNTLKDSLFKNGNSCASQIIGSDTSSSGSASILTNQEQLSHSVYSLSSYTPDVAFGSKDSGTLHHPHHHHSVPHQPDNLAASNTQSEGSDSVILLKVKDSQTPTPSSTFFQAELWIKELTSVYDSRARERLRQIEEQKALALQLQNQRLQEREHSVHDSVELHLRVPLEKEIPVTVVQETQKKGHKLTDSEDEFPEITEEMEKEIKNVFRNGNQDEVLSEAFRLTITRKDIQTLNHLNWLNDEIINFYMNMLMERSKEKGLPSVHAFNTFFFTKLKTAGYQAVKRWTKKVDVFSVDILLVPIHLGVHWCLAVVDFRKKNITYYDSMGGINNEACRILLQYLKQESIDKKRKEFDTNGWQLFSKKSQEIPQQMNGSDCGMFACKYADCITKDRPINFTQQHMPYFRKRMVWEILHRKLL

Mast cell = test: Inhibition of TNF-alpha production in mouse bone marrow-derived mast cells measured after 15 mins by ELISA; format: functional, cell-based; conditions: 0.25 h
[2] = target: T1, Sentrin-specific protease 1; test: Binding affinity to recombinant human 6His-tagged SENP1 catalytic domain expressed in Escherichia coli
[3] = target: T1, Sentrin-specific protease 1; test: Inhibition of recombinant human 6His-tagged SENP1 catalytic domain expressed in Escherichia coli preincubated for 15 mins followed by addition of SUMO1-AMC as substrate measured after 1 hr by fluorescence analysis
[4] = target: T1, Sentrin-specific protease 1; test: Binding affinity to full-length recombinant human 6His-tagged SENP1 expressed in Escherichia coli BL21 (DE3)
[5] = target: T2, Sentrin-specific protease 1 (Homo sapiens) (UniProt Q9P0U3); test: Inhibition of SENP1 in human KU812 cells preincubated for 20 mins followed by addition of HA-SUMO1-VS as substrate measured after 2 hrs by immunoblot analysis; format: cell-based
T2 sequence (whole entry): T1 sequence (Q9P0U3 whole entry)

RBL-2H3 = test: Inhibition of TNF-alpha production in antigen-stimulated rat RBL2H3 cells measured after 15 mins by ELISA; conditions: RBL-2H3, 0.25 h

O=C(Cc1ccccc1)Oc1c(OC(=O)Cc2ccccc2)c(-c2ccc(O)cc2)c(O)c(O)c1-c1ccc(O)cc1 [VIALININ A]
IC50 [1]: 1640 nM | IC50 (Mast cell): 0.04 nM | Ki [2]: 930 nM | IC50 [3]: 1890 nM | Ki [4]: 1070 nM | inhibition [5]: Active

Cc1c(C)c(-c2ccc(O)cc2)c(O)c(O)c1-c1ccc(O)cc1
IC50 [1]: 2710 nM | IC50 [3]: 3760 nM | inhibition [5]: Active

O=C1C(O)=C(c2ccc(O)cc2)C(=O)C(O)=C1c1ccc(O)cc1
IC50 [1]: 3790 nM | IC50 [3]: 6100 nM

CCN1C(=O)C=CC1=O
inhibition [5]: Active

O=C(Cc1ccc(O)cc1)Oc1c(OC(=O)Cc2ccc(O)cc2)c(-c2ccc(O)cc2)c(O)c(O)c1-c1ccc(O)cc1
IC50 (RBL-2H3): 3.5 nM

Cc1c(C)c(-c2ccc(OCc3cn(CCCCCCNC(=O)CCCC[C@@H]4SC[C@@H]5NC(=O)N[C@@H]54)nn3)cc2)c(O)c(O)c1-c1ccc(O)cc1
IC50 [1]: > 50000 nM | IC50 [3]: 9730 nM
